Structures can show the parent of a compound that is named as a salt.
What was measured:
[1] = system: intracellular Ca^2+; test: Calcium influx study, intracellular Ca^2+ levels by Fura-2 AM assay; type: cell-based; settings: amiloride HCl 100 μM 60 mins, thapsigargin 100 nM 25 mins, BAPTA-AM 10 μM 25 mins, in combinations; FIG. 9a iv, v, vi
Experimental: The data are represented in terms of the mean value±the standard error over quadruplicate runs, and the asterisks *, **, *** and **** indicate statistically significant differences with p<0:05, p<0:01, p<0:001 and p<0:0001, respectively.
The cells were seeded at a density of 0:05×10^6 cells per well in a 24-well glass-bottom plate and incubated at overnight in a humidified incubator. After incubation, they were treated with combinations of amiloride HCl (100 μM, for 60 mins)—a Ca^2+ ion channel blocker, thapsigargin (100 nM, for 25 mins)—an endoplasmic reticulum calcium ion inhibitor, and, BAPTA-AM (10 μM, for 25 mins)—a membrane permeable calcium chelator that removes intracellular calcium, following which they were incubated in the presence of 10 μM Fura2-AM for 60 mins at 37° C. to measure the intracellular Ca^2+ levels. The cells were then washed to remove the extracellular dye and replenished with DMEM, taking care to protect them from exposure to light. The media devoid of calcium from the inhibitor-treated cells was subsequently replaced with media containing calcium, and, where appropriate, exposed to the SRBW insonation (i.e. acoustic stimulation). Changes in the fluorescence intensity were measured with a spectrophotometric plate reader (CLARIOstar®, BMG LabTech, Mornington, VIC, Australia).

[2] = system: cells; settings: within 2 to 72 hrs; dose dependent; cited from earlier work

Row | Compound | effect on intracellular calcium store [1] | enhancing exosome yield [2]
1 | C/C=C(/C)C(=O)O[C@H]1C(C)=C2[C@H]([C@@H]1OC(=O)CCCCCCC)[C@@](C)(OC(C)=O)C[C@H](OC(=O)CCC)[C@@]1(O)[C@H]2OC(=O)[C@@]1(C)O [thapsigargin] | deplete the intracellular calcium store | 
2 | calcium phosphate |  | two-and-one-half-fold
3 | N=C(N)NC(=O)c1nc(Cl)c(N)nc1N [amiloride HCl, amiloride hydrochloride] | deplete the intracellular calcium store | 
4 | C[C@H](CCC(=O)O)C[C@H](C)C[C@H](C)C(=O)/C=C(\O)[C@H](C)C[C@H](C)C/C=C/[C@@H](C)[C@@H](O)[C@@H](C)[C@@H](O)C[C@@H]1CC[C@@](C)([C@H]2CC[C@@](C)([C@@H](C)O)O2)O1 [ionomycin] |  | two-and-one-half-fold

— patent US20230265378A1, “STIMULATING CELLULAR PRODUCTION OF EXOSOMES” (ROYAL MELBOURNE INSTITUTE OF TECHNOLOGY, priority 2020, published 2023)
